Test results as given in ChEMBL document CHEMBL1142892, “Synthesis and antitumor activity of indolylpyrimidines: marine natural product meridianin D analogues” (Bioorg Med Chem, 2007).
Values after ≈ are worked out from the molar mass of the structure shown. Active and inactive are the calls of the source. No cut-off for these calls is given here.

Key:
Type in all cases: functional, cell-based
MCF7 = experiment: Cytotoxicity against human MCF7 after 48 hrs cells by SRB assay
U-251 = experiment: Cytotoxicity against human U251 cells after 48 hrs by SRB assay
HepG2 = experiment: Cytotoxicity against human HEPG2 cells after 48 hrs by SRB assay
HeLa = experiment: Cytotoxicity against human HeLa cells after 48 hrs by SRB assay

Row | SMILES | IC50 (MCF7) [µg/mL] | Activity (U-251) | Activity (HepG2) | IC50 (HeLa) [µg/mL]
1 | N/N=C(\N)c1cnc(N)nc1-c1c[nH]c2ccccc12 | 0.25 (≈ 0.935 µM) | inactive | inactive | –
2 | Nc1nccc(-c2c[nH]c3ccccc23)n1 | – | inactive | inactive | –
3 | N#Cc1cnc(N)nc1-c1c[nH]c2ccccc12 | 0.85 (≈ 3.61 µM) | inactive | inactive | 2.65 (≈ 11.3 µM)
4 | Nc1ncc(C(=O)O)c(-c2c[nH]c3ccccc23)n1 | 0.75 (≈ 2.95 µM) | inactive | inactive | –
